The source of these data is patent publication US20070032502A1, “Quinazoline derivatives useful in cancer treatment” (Schering Corporation, priority 2005, published 2007).

Common to all, as to type: cell-based
In assay [1] the test system is pancreatic cells. Put plainly: Potentiation of growth suppression with temozolomide (proliferation assay, temozolomide IC50). As to conditions: Homo sapiens, TMZ alone. The protocol:
(§1) That the compounds of the present invention potentiate the growth suppression activity of temozolomide is illustrated by the fact that the compounds lower the temolozomide IC50 in various cell lines. The proliferation assay used is similar to that set forth above, and comprises the following general steps. • TMZ is diluted 2 fold in complete medium. • Cells are harvested and placed in each well with diluted TMZ. Cell conc. is 5000 cells per well in complete medium. • Appropriate concentration of compounds of present invention are then added to each well in combination with diluted TMZ. • Plates are incubated at 37° C. for 72 hrs. • Medium is poured off and 50 μL per well of Calcein AM (10 uM is added. Plate is then read in the fluorescent plate reader.
The extent of increase can be quantitated as is shown below in FIG. 5.

Assay [2] relates to U87. Put plainly: Potentiation of growth suppression with temozolomide (proliferation assay, temozolomide IC50), U87 glioma cells. As to conditions: Homo sapiens, U-87 MG, p53 wild, TMZ alone. The protocol: as §1
In assay [3] the test system is LN 18. Put plainly: Potentiation of growth suppression with temozolomide (proliferation assay, temozolomide IC50), LN 18 glioma cells. As to conditions: Homo sapiens, p53 mutant, TMZ alone. The protocol: as §1

The term IC50 denotes the concentration needed to halve the response being measured. Consider `Cn1nnc2c(C(N)=O)ncn2c1=O` [TMZ, temozolomide], for which the IC50 turned out to be 3320 µM in assay [1] (MIA PaCa-2, Miapaca-2, Pancreas, p53 mutant); 2860 µM in assay [1] (Capan-1, Pancreas, p53 mutant); 4310 µM in assay [1] (Capan-2, Pancreas, p53 wild); 2540 µM in assay [2]; 2700 µM in assay [3].
